What was measured:
[1] = Half life in human liver microsomes at 1 uM by LC-MS/MS analysis
[2] = Half life in rat liver microsomes at 1 uM by LC-MS/MS analysis
[3] = biological target: T1, Steroid 17-alpha-hydroxylase/17,20 lyase (Homo sapiens, UniProt P05093); assay: Inhibition of CYP17 in human testicular microsomes using 17alpha-hydroxypregnenolone as substrate assessed as decrease in DHEA levels at 10 nM after 90 mins by ELISA relative to control; set-up: species or system Testis; settings: 1.5 h
T1 sequence (P05093 whole entry): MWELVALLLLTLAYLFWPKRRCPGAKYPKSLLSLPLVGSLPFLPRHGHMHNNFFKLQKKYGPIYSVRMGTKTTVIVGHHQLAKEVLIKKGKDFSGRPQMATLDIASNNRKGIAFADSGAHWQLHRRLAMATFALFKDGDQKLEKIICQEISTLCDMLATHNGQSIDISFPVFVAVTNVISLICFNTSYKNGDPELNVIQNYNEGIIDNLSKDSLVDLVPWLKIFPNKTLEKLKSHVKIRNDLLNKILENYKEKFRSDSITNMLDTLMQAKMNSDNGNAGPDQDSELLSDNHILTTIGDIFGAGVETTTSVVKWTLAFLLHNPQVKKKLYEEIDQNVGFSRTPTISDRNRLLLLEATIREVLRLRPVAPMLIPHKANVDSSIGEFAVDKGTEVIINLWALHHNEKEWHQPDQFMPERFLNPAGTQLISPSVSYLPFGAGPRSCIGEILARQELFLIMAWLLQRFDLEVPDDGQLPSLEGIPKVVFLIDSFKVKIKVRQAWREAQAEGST

[4] = biological target: T1, Steroid 17-alpha-hydroxylase/17,20 lyase; assay: Inhibition of CYP17 in human testicular microsomes using 17alpha-hydroxypregnenolone as substrate assessed as decrease in DHEA levels after 90 mins by ELISA; set-up: species or system Testis
[5] = biological target: T1, Steroid 17-alpha-hydroxylase/17,20 lyase; assay: Inhibition of CYP17 in human H295R cells assessed as decrease in testosterone levels after 24 hrs by ELISA; assay type: cell-based
[6] = biological target: T2, CYP21 (steroid 21-hydroxylase) (Homo sapiens, UniProt P08686); assay: Inhibition of human CYP21 transfected in HEK293 cells assessed as decrease in conversion of progesterone to 11-deoxycorticosterone preincubated for 5 hrs followed by progesterone addition measured after 20 hrs by ELISA; assay type: cell-based; set-up: concentration or dose not given beside the values; settings: HEK293 cells transfected with human CYP21, probe progesterone
T2 sequence (P08686 whole entry): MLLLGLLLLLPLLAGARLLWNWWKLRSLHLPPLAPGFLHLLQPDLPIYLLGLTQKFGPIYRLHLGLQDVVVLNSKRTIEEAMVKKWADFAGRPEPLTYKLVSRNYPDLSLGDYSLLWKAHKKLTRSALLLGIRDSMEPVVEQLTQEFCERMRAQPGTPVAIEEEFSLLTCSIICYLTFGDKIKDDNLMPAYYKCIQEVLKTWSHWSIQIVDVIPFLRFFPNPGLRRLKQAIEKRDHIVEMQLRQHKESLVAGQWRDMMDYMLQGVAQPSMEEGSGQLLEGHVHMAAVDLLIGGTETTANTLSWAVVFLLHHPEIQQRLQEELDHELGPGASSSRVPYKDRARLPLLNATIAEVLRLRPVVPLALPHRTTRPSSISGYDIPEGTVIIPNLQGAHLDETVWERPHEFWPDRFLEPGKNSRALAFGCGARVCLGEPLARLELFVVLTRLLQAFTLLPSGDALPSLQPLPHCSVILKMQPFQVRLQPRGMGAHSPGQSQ

Row | SMILES | half-life at 1 µM [1] | half-life at 1 µM [2] | inhibition at 0.01 µM [3] | IC50 [4] | IC50 [5] | inhibition at 20 h [6]
1 | C[C@]12CCNC(=O)C=C1CC[C@@H]1[C@@H]2CC[C@]2(C)C(n3ccnc3)CC[C@@H]12 (stereo not given in full) | ≥ 50 min | 10 to 60 min | ≥ 80% | ≤ 11 nM |  | 
2 | CC(=O)N[C@@H]1CC[C@@]2(C)C(=CC[C@H]3C4=CC=C(c5cccnc5)[C@@]4(C)CC[C@@H]32)C1 | 1 to 50 min |  |  |  | ≤ 15 nM | ≥ 50%
3 | COc1cncc(C2=CC[C@H]3[C@@H]4CC[C@H]5COCCC[C@]5(C)[C@H]4CC[C@]23C)c1 | 1 to 10 min | 1 to 10 min | 50 to 80% | ≤ 11 nM |  | 
4 | CC(=O)N[C@@H]1CC[C@@]2(C)C(=CC[C@@H]3[C@@H]2CC[C@]2(C)C(c4cccnc4)=CC[C@@H]32)C1 | 1 to 50 min |  |  | ≤ 11 nM | ≤ 15 nM | ≥ 50%
5 | Cc1cn(C2=CC[C@H]3[C@@H]4CCC5=CC(=O)NCC[C@]5(C)[C@H]4CC[C@]23C)cn1 | 10 to 60 min | 10 to 60 min | 50 to 80% | ≤ 11 nM |  | 
6 | C[C@]12CCCOCC1CCC1C2CC[C@]2(C)C(c3cccnc3)=CC[C@@H]12 (single isomer, unassigned) | 1 to 10 min | 1 to 10 min | ≥ 80% | ≤ 11 nM |  | 
7 | CCc1cncc(C2=CC[C@H]3[C@@H]4CCN5C(=O)CCCC[C@]5(C)[C@H]4CC[C@]23C)c1 | 1 to 10 min | 1 to 10 min | ≥ 80% | ≤ 11 nM |  | 
8 | C[C@]12CCNC(=O)C=C1C1CC1[C@@H]1[C@@H]2CC[C@]2(C)C(c3cncc(F)c3)=CC[C@@H]12 (stereo not given in full) | 1 to 50 min |  |  | ≤ 11 nM | ≤ 15 nM | ≥ 50%
9 | C[C@]12CCNC(=O)C[C@@H]1CC[C@@H]1[C@@H]2CC[C@]2(C)C(n3ccnc3)=CC[C@@H]12 | ≥ 50 min | 10 to 60 min | ≥ 80% | ≤ 11 nM |  | 
10 | C[C@]12CC[C@H]3[C@@H](CCC45CC4C(O)CC[C@]35C)[C@@H]1CC=C2c1cccnc1 (stereo not given in full) |  |  |  | ≤ 11 nM | ≤ 15 nM | ≥ 50%
11 | CN1C(=O)COC[C@@]2(C)C1CC[C@@H]1[C@@H]2CC[C@]2(C)C(c3cccnc3)=CC[C@@H]12 (stereo not given in full) | 1 to 10 min | 1 to 10 min | 50 to 80% | ≤ 11 nM |  | 
12 | Cc1cncc(C2=CC[C@H]3[C@@H]4CC[C@H]5COCCC[C@]5(C)[C@H]4CC[C@]23C)c1 | 1 to 10 min | 1 to 10 min | 50 to 80% | ≤ 11 nM |  | 
13 | COc1cncc(C2=CC[C@H]3[C@@H]4CCN5C(=O)CCCC[C@]5(C)[C@H]4CC[C@]23C)c1 | 1 to 10 min | 1 to 10 min | ≥ 80% | ≤ 11 nM |  | 
14 | C[C@@]1(O)CC[C@@]2(C)C(CC[C@@H]3[C@@H]2CC[C@]2(C)C(c4cncc(F)c4)=CC[C@@H]32)C1 (stereo not given in full) | 1 to 50 min |  |  | ≤ 11 nM | ≤ 15 nM | 
15 | C[C@]12CCCCC[C@@H]1CC[C@@H]1[C@@H]2CC[C@]2(C)C(n3ccnc3)=CC[C@@H]12 | 10 to 60 min | 10 to 60 min | 50 to 80% | ≤ 11 nM |  | 
16 | C[C@]12CC(=O)C[C@@H]1CC[C@@H]1[C@@H]2CC[C@]2(C)C(n3ccnc3)=CC[C@@H]12 | ≥ 50 min | 1 to 10 min | ≥ 80% | ≤ 11 nM |  | 
17 | CC(C)C(=O)N[C@H]1CC[C@@]2(C)C(CC[C@@H]3[C@@H]2CC[C@]2(C)C(c4cccnc4)=CC[C@@H]32)C1 (stereo not given in full) | 1 to 50 min |  |  |  | ≤ 15 nM | ≥ 50%
18 | Cc1cncc(C2=CC[C@H]3[C@@H]4CCN5C(=O)CCCC[C@]5(C)[C@H]4CC[C@]23C)c1 | 1 to 10 min | 1 to 10 min | 50 to 80% | ≤ 11 nM |  | 
19 | CN(C)CC(=O)O[C@H]1CC[C@@]2(C)C(=CC[C@H]3C4=CC=C(c5cccnc5)[C@@]4(C)CC[C@@H]32)C1 |  |  |  |  | 15 to 100 nM | ≥ 50%
20 | Cc1ccncc1C1=CC=C2[C@@H]3CC=C4C[C@@H](O)CC[C@]4(C)[C@H]3CC[C@]12C | 1 to 50 min |  |  |  | 15 to 100 nM | ≥ 50%
21 | CC1=C2CC[C@@H]3[C@H](CC[C@]4(C)C(c5cccnc5)=CC[C@@H]34)[C@@]2(C)CCC1=O |  |  |  | ≤ 11 nM | ≤ 15 nM | ≥ 50%
22 | CCOc1cncc(C2=CC[C@H]3[C@@H]4CC[C@H]5COCCC[C@]5(C)[C@H]4CC[C@]23C)c1 | 1 to 10 min | 1 to 10 min | 50 to 80% | ≤ 11 nM |  | 
23 | C[C@]12CCC(F)CC1=CC[C@@H]1[C@@H]2CC[C@]2(C)C(c3cncc(F)c3)=CC[C@@H]12 (stereo not given in full) | ≥ 50 min |  |  | ≤ 11 nM | ≤ 15 nM | 
24 | C[C@]12CCOCC[C@@H]1CC[C@@H]1[C@@H]2CC[C@]2(C)C(c3cccnc3)=CC[C@@H]12 | 1 to 10 min | 1 to 10 min | ≥ 80% | ≤ 11 nM |  | 
25 | Cc1cncc(C2=CC[C@H]3[C@@H]4CC[C@H]5COC(=O)CC[C@]5(C)[C@H]4CC[C@]23C)c1 | 1 to 10 min | 1 to 10 min | 1 to 50% |  |  | 
26 | C[C@]12CCCCC1=CC[C@@H]1[C@@H]2CC[C@]2(C)C(c3cccnc3)=CC[C@@H]12 | 1 to 10 min | 1 to 10 min | 50 to 80% |  |  | 
27 | CC1C(O)CC[C@@]2(C)C1CC[C@@H]1[C@@H]2CC[C@]2(C)C(c3cccnc3)=CC[C@@H]12 (stereo not given in full) |  |  |  | ≤ 11 nM | ≤ 15 nM | 10 to 50%
28 | C[C@]12CC[C@H]3[C@@H](CC=C4C[C@@H](O)CC[C@@]43C)C1=CC=C2c1cncc(C(F)F)c1 |  |  |  |  | 15 to 100 nM | < 10%
29 | CCCOc1cncc(C2=CC[C@H]3[C@@H]4CCN5CCCCC[C@]5(C)[C@H]4CC[C@]23C)c1 | 10 to 60 min | 10 to 60 min | 50 to 80% |  |  | 
30 | COc1cncc(C2=CC[C@H]3[C@@H]4CC[C@H]5CCOCC[C@]5(C)[C@H]4CC[C@]23C)c1 | 1 to 10 min | 1 to 10 min | 50 to 80% | ≤ 11 nM |  | 

From ChEMBL document CHEMBL3882724 (2013)
